“And” between values parts separate entries of the source, which are not always exact repeats. Identical values can stand only once.
How the values were obtained:
HUVEC cells [1] = test: Flow cytometry / FACS apoptosis (Sub G1, propidium iodide); type: cell-based, human; settings: 24 hours
Method: About 2×10^6 HUVEC and PC3 cells were treated with different concentrations of GA at 37° C. in a 5% CO2 incubator for 24 hours. The cells were collected and flow cytometry was performed using a FACS Vantage SE DiVa flow cytometer (Becton Dickinson) with propidium iodide staining. The cell population percentages at Sub G1 were defined as apoptotic cells.

HUVEC cells [2] = test: Transwell migration (invasion) assay; type: cell-based, human; settings: 40 nM GA, 4 hours
Method: The transwell (Corning Incorporated, NY, USA) were coated with 0.1% gelatin (Sigma) for 30 minutes at 37° C. After washed the transwells three times with 1×PBS, the bottom chambers (600 μl) were filled with ECGM medium with 20% FBS supplemented with 4 ng/ml VEGF and the top chambers were seeded with 100 μl ECGM medium and HUVEC cells (4×10^4 cell/well). The top and bottom chambers contained the same series of concentrations of gambogic acid (GA). HUVEC cells were allowed to migrate for 4 hours at 37° C., 5% CO2. After the incubation, cells on the top surface of the membrane (nonmigrated) were scraped with a cotton swab. Cells on the bottom side of the membrane (migrated cells) were fixed with 4% paraformaldehyde for 20 minutes and washed three times with 1×PBS. The cells were stained by hematoxylin and eosin (hereinafter, H&E) staining and then destained with 1×PBS (pH 7.4). The membranes were left to air dry at room temperature for 30 minutes. Images were taken using an OLYMPUS inverted microscope and migrated cells were quantified by manual counting using high power fields (HPF, 200×). The invaded cells were calculated and percent inhibition was expressed using untreated wells as 100% (t-test, p<0.01).

mice aortic rings = test: Aortic ring assay (micro-vessel growth); type: cell-based; settings: 10 nM GA, 4 days incubation
Method: Forty-eight-well plates were covered with 100 μl of Matrigel at 4° C. and incubated at 37° C., 5% CO2 for 30 minutes. Aortas isolated from mice were cleaned of periadventitial fat and connective tissues, and cut into about 1-1.5 mm-long rings. After being rinsed five times with endothelial cell-based medium, the aortas were placed on the Matrigel covered wells and covered with another 100 μl of Matrigel. Artery rings were cultured in 1.5 ml of ECGM medium without serum for 24 hours. The medium was then replaced with 1.5 ml of ECGM medium supplemented with or without GA. The medium was changed every two days with the exact composition as described above. After 4 days incubation, the micro-vessel growth was quantified in the mouse aortic ring assay by taking photographs with an Olympus IX 70 inverted microscope using a 4× objective lens. After images were acquired, the outgrowth area was delineated and measured with Pro Plus software (Media Cybernetics).

[3] = test system: PC3 human prostate tumor cells in SCID male mice; type: in vivo
Method: The 5-6 week old severe combined immune deficiency (SCID) male mice (ordered from NIH, each weighing about 20 g) were divided into groups of five mice per group. Log-phase PC3 human prostate tumor cells were subcutaneously injected (2×10^6 cell per mouse) into the mice. After the tumors had become established (about 50 mm^3), the mice were subcutaneously injected with or without 3 mg/kg GA every day. The mice body weights and tumor sizes were recorded every day and the tumor sizes were determined by Vernier caliper measurements and calculated as length×width×height. After 15 days, mice with subcutaneous (hereinafter, s.c.) tumors no greater than 1.5 cm in diameter were sacrificed in accordance with University of California Los Angeles Animal Rights Committee Guidelines. The tumors were removed and fixed with Histochoice® MB (Molecular Biology) tissue fixative (Amresco®) and embedded with paraffin. The 5 μm sections were performed specific blood vessel staining with CHEMICON's Blood Vessel Staining Kit (von Willebrand Factor, Chemicon International, blood vessel staining kit, peroxidase system). Images were taken with a ZEISS Axioskop 40 photomicroscope. The number of blood vessels in the high power fields (HPF, 200×) was counted (plug number=4-5, t-test, p<0.005).

FAK = FAK phosphorylation in HUVEC cells (immunoprecipitation, Western blotting); type: cell-based, human; settings: HUVEC cells with or without VEGF, GA 1-40 nM, 5 minutes
Method: After starvation in ECGM medium without serum overnight, HUVEC cells were washed with 1×PBS twice, followed with incubation in M199 medium. HUVEC cells were then treated with 1 nM of GA and/or 4 nM of VEGF for 5 minutes, then subjected to immunoprecipitation using anti-VEGFR2 antibody. Anti-phosphotyrosine antibody was used for the detection of phosphorylation of the tyrosine residue of VEGFR2. […] Reaction cocktail containing 100 ng of active VEGFR2 was incubated with different concentrations of GA for 5 minutes at room temperature. Substrate peptide cocktail was added to the pre-incubated reaction cocktail/GA compound. After incubation at room temperature for 30 minutes, stop buffer was added to halt the reaction. 25 μl of each reaction was then transferred with 75 μl dH2O per well into a 96-well streptavidin coated plate and incubated at room temperature for 60 minutes. […] The stop solution was added and the plate was detected at 405 nm. […]
HUVEC cells pretreated with or without 4 nM VEGF for 5 min were treated with or without different concentrations of GA for another 5 minutes. […] Anti-cleaved caspase 3 antibody (Santa Cruz Biotech) was used for detecting cleaved caspase 3 and polyADP ribose polymerase (PARP) cleavage was detected by an anti-PARP p85 fragment (Promega) in apoptosis assays.

With `CC(C)=CCC[C@]1(C)C=Cc2c(O)c3c(c(CC=C(C)C)c2O1)O[C@]12C(=C[C@@H]4C[C@H]1C(C)(C)O[C@@]2(C/C=C(/C)C(=O)O)C4=O)C3=O` [GA, gambogic acid] the Apoptotic population (HUVEC cells [1]; GA 20 nM) was 11.6 ± 1.1 % of total, the Apoptotic population (HUVEC cells [1]; GA 40 nM) was 14.4 ± 2.3 % of total and the Apoptotic population (HUVEC cells [1]; GA 80 nM) was 40 % of total and 40 ± 3.6 % of total. The Apoptotic population (HUVEC cells [1]; GA 100 nM) was 57.6 ± 4.7 % of total, the “Invasion of HUVEC cells (transwell)” value (HUVEC cells [2]) was “inhibit almost all invasion activities” and the “New vessel growth from aortic rings” value (mice aortic rings) was “inhibited almost all new vessel growth”. The “Tumor size after 15 days” value ([3]; 3 mg/kg GA every day s.c., 15 days) was 169.1±25.6 mm^3 and 127.4±25.6 mm^3, the “Average vessel number in tumors” value ([3]; 3 mg/kg GA every day, 15 days, HPF 200×) was 1.8±1.3 per HPF and the “Tumor size at start of treatment” value ([3]; GA treated group, before 3 mg/kg GA every day) was 51.74±3.8 mm^3. The “Average body weight at start” value ([3]; mouse, in vivo) was 22.4 ± 1 g and the “Phosphorylation and activation of FAK” value (FAK) was “significantly inhibited the phosphorylation and activation”.

— patent publication US20090259054A1, “Methods and Compositions for the Treatment of Angiogenesis and Macular Degeneration” (The Texas A&M University System, priority 2008, published 2009)
